Measured values published in patent US10544130B2, “Metallo-beta-lactamase inhibitors” (priority 2015, dated 2020).

Legend:
[1] = system: Serratia marcescens expressing IMP-1 (CL5741); format: cell-based; details: with imipenem 1 μg/ml; 95% inhibition of bacterial growth
Outline: (§1)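 Clinical strains were grown overnight at 35 °C on blood agar, adjusted to set OD600 in saline and diluted 1:100 into 1.1× CAMHB. Inhibitor was tested with and without imipenem at 1 μg/ml. After 22–24 h at 35 °C, absorbance was read to give synergistic concentration.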

[2] = system: Escherichia coli expressing NDM-1 (CLB30005, CLB30016); format: cell-based; details: with imipenem 1 μg/ml; 95% inhibition of bacterial growth
Outline: as §1

[3] = system: Pseudomonas aeruginosa PAO1 MB9798 (efflux+, IMP-1); details: ratio MITC95 PA 9798/MITC95 PA 9799; imipenem at 2 μg/mL
Outline: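 Isogenic PAO1 pair (efflux+ MB9798, efflux− MB9799, both IMP-1) tested by microbroth MIC with fixed imipenem and/or ceftazidime, usually at CLSI breakpoint, plus fixed class A/C inhibitor against AmpC. MBL inhibitor titrated; concentration restoring susceptibility recorded and fold difference between strains taken as efflux extent.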

Nc1nc2c(-c3ccc(S(=O)(=O)NC[C@@]4(N)CCNC4)c(S(N)(=O)=O)c3-c3nn[nH]n3)cccc2[nH]1 [Example 251, (R)-4-(2-amino-1H-benzo[d]imidazol-4-yl)-N1-((3-aminopyrrolidin-3-yl)methyl)-3-(2H-tetrazol-5-yl)benzene-1,2-disulfonamide] was tested, and the “Serratia marcescens (IMP-1) MITC95” value [1] was 0.7813 µM, the “Escherichia coli (NDM-1) MITC95” value [2] was 0.7813 µM and the Efflux ratio [3] was 1.00.

In the case of NC(=O)c1nc2c(-c3ccc(S(=O)(=O)N[C@@H]4CCNC4)c(S(N)(=O)=O)c3-c3nn[nH]n3)cccc2[nH]1 [Example 271, (R)-4-(4-(N-(pyrrolidin-3-yl)sulfamoyl)-3-sulfamoyl-2-(2H-tetrazol-5-yl)phenyl)-1H-benzo[d]imidazole-2-carboxamide], the “Serratia marcescens (IMP-1) MITC95” value [1] is reported as 0.7813 µM, the “Escherichia coli (NDM-1) MITC95” value [2] is reported as 1.563 µM and the Efflux ratio [3] is reported as 0.50.

Nc1ncc(-c2ccc(S(=O)(=O)N[C@@H]3CNC[C@@H]3N)c(S(N)(=O)=O)c2-c2nn[nH]n2)s1 [Example 321, N^1-((3R,4S)-4-aminopyrrolidin-3-yl)-4-(2-aminothiazol-5-yl)-3-(2H-tetrazol-5-yl)benzene-1,2-disulfonamide] was tested, and the “Serratia marcescens (IMP-1) MITC95” value [1] was 1.563 µM, the “Escherichia coli (NDM-1) MITC95” value [2] was 0.7813 µM and the Efflux ratio [3] was 2.00.

With NCc1nc2c(-c3ccc(S(=O)(=O)NC[C@@H](O)CN)c(S(N)(=O)=O)c3-c3nn[nH]n3)cccc2s1 [Example 306, (S)—N1-(3-amino-2-hydroxypropyl)-4-(2-(aminomethyl)benzo[d]thiazol-4-yl)-(2H-tetrazol-5-yl)benzene-1,2-disulfonamide] the “Serratia marcescens (IMP-1) MITC95” value [1] was 0.7813 µM, the “Escherichia coli (NDM-1) MITC95” value [2] was 0.7813 µM and the Efflux ratio [3] was 1.00.

With NCC(CO)(CO)NS(=O)(=O)c1ccc(-c2cccc3[nH]c(N)nc23)c(-c2nn[nH]n2)c1S(N)(=O)=O [Example 247, 4-(2-amino-1H-benzo[d]imidazol-4-yl)-N-1-(1-amino-3-hydroxy-2-(hydroxymethyl)propan-2-yl)-3-(2H-tetrazol-5-yl)benzene-1,2-disulfonamide] the “Serratia marcescens (IMP-1) MITC95” value [1] was 1.563 µM, the “Escherichia coli (NDM-1) MITC95” value [2] was 0.7813 µM and the Efflux ratio [3] was 2.00.

For CNc1nc2c(-c3ccc(S(=O)(=O)N[C@@H]4CCNC4)c(S(N)(=O)=O)c3-c3nn[nH]n3)cccc2[nH]1 [Example 280, (R)-4-(2-(methylamino)-1H-benzo[d]imidazol-4-yl)-N1-(pyrrolidin-3-yl)-3-(2H-tetrazol-5-yl)benzene-1,2-disulfonamide], the “Serratia marcescens (IMP-1) MITC95” value [1] was 0.7813 µM, the “Escherichia coli (NDM-1) MITC95” value [2] was 0.7813 µM and the Efflux ratio [3] was 0.50.

With CNc1nc2c(-c3ccc(S(=O)(=O)N[C@H]4CCNC4)c(S(N)(=O)=O)c3-c3nn[nH]n3)cccc2[nH]1 [Example 295, (S)-4-(2-(methylamino)-1H-benzo[d]imidazol-4-yl)-N1-(pyrrolidin-3-yl)-3-(2H-tetrazol-5-yl)benzene-1,2-disulfonamide] the “Serratia marcescens (IMP-1) MITC95” value [1] was 0.7813 µM, the “Escherichia coli (NDM-1) MITC95” value [2] was 0.7813 µM and the Efflux ratio [3] was 1.00.

In the case of NCCCNC(=O)c1cccc(-c2ccc(S(=O)(=O)NCCN)c(S(N)(=O)=O)c2-c2nn[nH]n2)c1 [Example 341, 4′-(N-(2-aminoethyl)sulfamoyl)-N-(3-aminopropyl)-3′-sulfamoyl-2′-(2H-tetrazol-5-yl)-[1,1′-biphenyl]-3-carboxamide], the “Serratia marcescens (IMP-1) MITC95” value [1] is reported as 1.563 µM, the “Escherichia coli (NDM-1) MITC95” value [2] is reported as 0.7813 µM and the Efflux ratio [3] is reported as 2.00.

In the case of NC[C@@H](N)CNS(=O)(=O)c1ccc(-c2cnc(N)s2)c(-c2nn[nH]n2)c1S(N)(=O)=O [Example 377, (R)-4-(2-aminothiazol-5-yl)-N1-(2,3-diaminopropyl)-3-(2H-tetrazol-5-yl)benzene-1,2-disulfonamide], the “Serratia marcescens (IMP-1) MITC95” value [1] is reported as 1.563 µM, the “Escherichia coli (NDM-1) MITC95” value [2] is reported as 0.7813 µM and the Efflux ratio [3] is reported as 2.00.

In the case of Cn1c(N)nc2c(-c3ccc(S(=O)(=O)NC[C@H](O)CN)c(S(N)(=O)=O)c3-c3nn[nH]n3)cccc21 [Example 302, (R)-4-(2-amino-1-methyl-1H-benzo[d]imidazol-4-yl)-N1-(3-amino-2-hydroxypropyl)-3-(2H-tetrazol-5-yl)benzene-1,2-disulfonamide], the “Serratia marcescens (IMP-1) MITC95” value [1] is reported as 0.7813 µM, the “Escherichia coli (NDM-1) MITC95” value [2] is reported as 0.7813 µM and the Efflux ratio [3] is reported as 1.00.

In the case of Nc1ncc(-c2ccc(S(=O)(=O)N[C@H]3CNC[C@H]3N)c(S(N)(=O)=O)c2-c2nn[nH]n2)s1 [Example 325, N1-((3S,4R)-4-aminopyrrolidin-3-yl)-4-(2-aminothiazol-5-yl)-3-(2H-tetrazol-5-yl)benzene-1,2-disulfonamide], the “Serratia marcescens (IMP-1) MITC95” value [1] is reported as 1.563 µM, the “Escherichia coli (NDM-1) MITC95” value [2] is reported as 0.7813 µM and the Efflux ratio [3] is reported as 2.00.

For NCc1nc2c(-c3ccc(S(=O)(=O)N[C@@H](CN)CO)c(S(N)(=O)=O)c3-c3nn[nH]n3)cccc2s1 [Example 381, (S)—N1-(1-amino-3-hydroxypropan-2-yl)-4-(2-(aminomethyl)benzo[d]thiazol-4-yl)-3-(2H-tetrazol-5-yl)benzene-1,2-disulfonamide], the “Serratia marcescens (IMP-1) MITC95” value [1] was 1.172 µM, the “Escherichia coli (NDM-1) MITC95” value [2] was 0.7813 µM and the Efflux ratio [3] was 1.50.

With N[C@H]1CNC[C@H]1NS(=O)(=O)c1ccc(-c2cnc3cc[nH]c3c2)c(-c2nn[nH]n2)c1S(N)(=O)=O [Example 320] the “Serratia marcescens (IMP-1) MITC95” value [1] was 0.7813 µM, the “Escherichia coli (NDM-1) MITC95” value [2] was 0.7813 µM and the Efflux ratio [3] was 2.00.

With NCCNS(=O)(=O)c1ccc(-c2cccc(SCC(N)CO)c2)c(-c2nn[nH]n2)c1S(N)(=O)=O (stereo not shown) [Example 354, 3′-((2-amino-3-hydroxypropyl)thio)-N4-(2-aminoethyl)-2-(2H-tetrazol-5-yl)-[1,1′-biphenyl]-3,4-disulfonamide] the “Serratia marcescens (IMP-1) MITC95” value [1] was 1.563 µM, the “Escherichia coli (NDM-1) MITC95” value [2] was 0.3906 µM and the Efflux ratio [3] was 4.00.

For NC[C@H](CO)NS(=O)(=O)c1ccc(-c2cccc(N)n2)c(-c2nn[nH]n2)c1S(N)(=O)=O [Example 364, (R)—N^1-(1-amino-3-hydroxypropan-2-yl)-4-(6-aminopyridin-2-yl)-3-(2H-tetrazol-5-yl)benzene-1,2-disulfonamide], the “Serratia marcescens (IMP-1) MITC95” value [1] was 3.125 µM, the “Escherichia coli (NDM-1) MITC95” value [2] was 3.125 µM and the Efflux ratio [3] was 2.00.

NS(=O)(=O)c1c(S(=O)(=O)N[C@@H]2CCNC2)ccc(-c2cccc3ncccc23)c1-c1nn[nH]n1 [Example 287, (R)-N1-(pyrrolidin-3-yl)-4-(quinolin-5-yl)-3-(2H-tetrazol-5-yl)benzene-1,2-disulfonamide] was tested, and the “Serratia marcescens (IMP-1) MITC95” value [1] was 1.563 µM, the “Escherichia coli (NDM-1) MITC95” value [2] was 1.563 µM and the Efflux ratio [3] was 1.00.

CNc1ccc(-c2ccc(S(=O)(=O)N[C@@H]3CCNC3)c(S(N)(=O)=O)c2-c2nn[nH]n2)cn1 [Example 242] was tested, and the “Serratia marcescens (IMP-1) MITC95” value [1] was 0.7813 µM, the “Escherichia coli (NDM-1) MITC95” value [2] was 0.7813 µM and the Efflux ratio [3] was 1.00.

For NS(=O)(=O)c1c(S(=O)(=O)N[C@@H]2CCNC2)ccc(-c2cnc3cc[nH]c3c2)c1-c1nn[nH]n1 [Example 282, (R)-N1-(pyrrolidin-3-yl)-4-(1H-pyrrolo[3,2-b]pyridin-6-yl)-3-(2H-tetrazol-5-yl)benzene-1,2-disulfonamide], the “Serratia marcescens (IMP-1) MITC95” value [1] was 0.7813 µM, the “Escherichia coli (NDM-1) MITC95” value [2] was 0.7813 µM and the Efflux ratio [3] was 1.00.

In the case of Nc1nc2c(-c3ccc(S(=O)(=O)NCC4(O)CNC4)c(S(N)(=O)=O)c3-c3nn[nH]n3)cccc2s1 [Example 387, 4-(2-amino-1,3-benzothiazol-4-yl)-N^1-[(3-hydroxyazetidin-3-yl)methyl]-3-(2H-tetrazol-5-yl)benzene-1,2-disulfonamide], the “Serratia marcescens (IMP-1) MITC95” value [1] is reported as 1.563 µM and the “Escherichia coli (NDM-1) MITC95” value [2] is reported as 1.563 µM.

In the case of Nc1nc2c(-c3ccc(S(=O)(=O)NC[C@@H]4CNCCN4)c(S(N)(=O)=O)c3-c3nn[nH]n3)cccc2[nH]1 [Example 310, (S)-4-(2-amino-1H-benzo[d]imidazol-4-yl)-N1-(piperazin-2-ylmethyl)-3-(2H-tetrazol-5-yl)benzene-1,2-disulfonamide], the “Serratia marcescens (IMP-1) MITC95” value [1] is reported as 0.7813 µM, the “Escherichia coli (NDM-1) MITC95” value [2] is reported as 0.7813 µM and the Efflux ratio [3] is reported as 1.00.

Nc1nc2c(-c3ccc(S(=O)(=O)NC[C@]4(N)CCNC4)c(S(N)(=O)=O)c3-c3nn[nH]n3)cccc2s1 [Example 366, (S)-4-(2-aminobenzo[d]thiazol-4-yl)-N^1-((3-aminopyrrolidin-3-yl)methyl)-3-(2H-tetrazol-5-yl)benzene-1,2-disulfonamide] was tested, and the “Serratia marcescens (IMP-1) MITC95” value [1] was 1.563 µM, the “Escherichia coli (NDM-1) MITC95” value [2] was 0.7813 µM and the Efflux ratio [3] was 1.00.

With NCc1nc2cc(-c3ccc(S(=O)(=O)N[C@@H]4CCNC4)c(S(N)(=O)=O)c3-c3nn[nH]n3)ccc2s1 [Example 275, (R)-4-(2-(aminomethyl)benzo[d]thiazol-5-yl)-N^1-(pyrrolidin-3-yl)-3-(2H-tetrazol-5-yl)benzene-1,2-disulfonamide] the “Serratia marcescens (IMP-1) MITC95” value [1] was 0.7813 µM, the “Escherichia coli (NDM-1) MITC95” value [2] was 0.7813 µM and the Efflux ratio [3] was 1.00.

In the case of NCc1nc2c(-c3ccc(S(=O)(=O)NC[C@@H]4CNCCN4)c(S(N)(=O)=O)c3-c3nn[nH]n3)cccc2[nH]1 [Example 311, (S)-4-(2-(aminomethyl)-1H-benzo[d]imidazol-4-yl)-N-(piperazin-2-ylmethyl)-3-(2H-tetrazol-5-yl)benzene-1,2-disulfonamide], the “Serratia marcescens (IMP-1) MITC95” value [1] is reported as 1.563 µM and the “Escherichia coli (NDM-1) MITC95” value [2] is reported as 1.563 µM.
